# Test results: US9422238B2, “ICMT inhibitors” (National University of Singapore, priority 2012, dated 2016)
# Like-named read-outs stand apart in the source and are kept apart here.
# How the values were obtained:
# [1] = biological target: T1, Isoprenylcysteine carboxyl methyltransferase (Icmt) (Homo sapiens, UniProt O60725); experiment: Icmt inhibition, scintillation proximity assay with BFC and [3H]SAM; format: biochemical; conditions: for IC50: read-out: IC50 Icmt
# T1 construct: made in house; host or cells: Sf9 (Spodoptera frugiperda) insect cells; membrane preparation provided by Prof PJ Casey (Duke University / Duke-NUS)
# Experimental: Isoprenylcysteine carboxyl methyltransferase (Icmt) was provided by Prof PJ Casey of Duke University, NC. S-Adenosylmethionine (SAM), magnesium chloride Hexahydrate (MgCl2), tartrazine, 4-(2-hydroxyethyl)-1-piperazineethanesulfonic acid (HEPES), dimethyl sulfoxide (DMSO) and dithiotreitol (DTT) were purchased from Sigma (Mo, USA). [^3H] S-Adenosylmethionine, [^3H] Biotin and Streptavidin PVT SPA Beads were purchased from PerkinElmer (Waltham, Mass.). Assays were performed in black small volume 384 well microtitre plates from PerkinElmer.
# Stocks of Icmt membrane protein (30 μg/μL) stored at −80° C. were thawed at 37° C. and placed on ice. The Icmt membrane protein was diluted in assay buffer (70 mM HEPES, 100 mM NaCl, 5 mM Mg Cl2 and 3 mM DTT, pH 7.5) to a 0.03 μg/μL working concentration and added to the wells of a microtitre plate (5 μl/well). To each wells 20 μl of the reaction buffer was added. The reaction was initiated with the addition of 5 μL of substrate solution containing BFC (6 μM), SAM (3 μM) and 30 μCi/mL [^3H] SAM (all of these reagents were stored at −20° C., SAM reagents thawed on ice, BFC thawed at RT). The plate was incubated at 37° C. for 30 minutes. The reaction was stopped with the addition of 15 μL of stop solution containing SAM (150 μM) and Streptavidin SPA beads (20 mg/mL). Following overnight incubation at ambient temperature radioactivity was counted on a Microbeta Trilux™ (Perkin Elmer, Turku, Finland).
# Sf9 (Spodoptera frugiperda ovarian) membranes containing recombinant Icmt were provided by Prof PJ Casey (Duke University, NC and Duke-NUS Graduate Medical School). S-Adenosylmethionine (SAM), magnesium chloride hexahydrate, tartrazine, 4-(2-hydroxyethyl)-1-piperazineethanesulfonic acid (HEPES) and dithiotreitol (DTT) were purchased from Sigma (Mo, USA). [^3H] S-Adenosylmethionine, [^3H] biotin and streptavidin PVT SPA Beads were purchased from PerkinElmer (Waltham, Mass.). Biotinylated farnesylcysteine was synthesized as described in an earlier report. Assays were performed in black 384-well microtitre plates from PerkinElmer.
# A vial of Icmt membrane protein (30 μg/μL) stored at −80° C. was thawed at 37° C. and placed on ice. The protein was diluted in assay buffer (70 mM HEPES, 100 mM NaCl, 5 mM MgCl2, 3 mM DTT, pH 7.5) to 0.03 μg/μL and aliquots were added to each well (5 μL/well), followed by 20 μL of the assay buffer. The reaction was initiated by adding 5 μL of a solution containing biotinylated BFC (6 μM), SAM (3 μM) and 30 μCi/mL [^3H] SAM. These reagents were stored at −20° C. and thawed on ice (SAM, [^3H] SAM) or at room temperature (BFC). The plate was incubated at 37° C. for 30 minutes after which the reaction was quenched by adding 15 μL of a solution comprising SAM (150 μM) and streptavidin SPA beads (20 mg/mL). After overnight incubation at ambient temperature, radioactivity was counted (Microbeta Trilux™, Perkin Elmer, Turku, Finland). The degree of inhibition was assessed from the radioactivity obtained in presence of test compound compared to that obtained from the control sample […]. Two independent determinations were made for each test compound.
# [2] = system: MDA-MB-231 human breast cells; experiment: Antiproliferative activity / cell viability (MTS, 72 h); conditions: Homo sapiens
# Experimental: The relative number of the live cells was determined using the CellTiter® 96 AQueous One Solution Cell Proliferation Assay (Promega). Determinations were made in duplicates or triplicates.
# Human breast cancer MDA-MB231, liver cancer HepG2 and lung fibroblast cells were purchased from ATCC (Rockville, Md.). MDA-MB231 cells and IMR-90 cells were grown in DMEM (Sigma Aldrich, Singapore) and EMEM (Sigma Aldrich, Singapore) respectively at 37° C., 5% CO2. DMEM was supplemented with 10% fetal bovine serum (Invitrogen, heat treated at 65 deg C., 30 min), 50 units/L penicillin-G and 50 μg/mL streptomycin. EMEM was supplemented with 10% fetal bovine serum (heat treated as above), 100 mg/L penicillin-G and 100 μg/mL streptomycin.
# Cell viability was assessed using CellTitre 96® Aqueous One Solution (Promega, Madison, Wis.) containing the tetrazolium salt 3-(4,5-dimethylthiazol-2-yl)-5-(3-carboxymethoxyphenyl)-2-(4-sulfophenyl)-2H-tetrazolium (MTS). […] Final concentration of DMSO per well was maintained at 0.5% v/v. […] Cell viability was determined from the expression:
# The plot was constrained to ≧0 and ≦100%. At least 3 independent determinations of IC50 were made using two different stock solutions of test compound.
# [3] = Aggregation tendency by dynamic light scattering (DLS); format: physicochemical; conditions: for DLS count rate (kcps): 1% DMSO, potassium phosphate buffer 5 mM pH 7.4
# Experimental: Stock solutions (10 mM) of test compounds prepared in DMSO, diluted to 1 mM with DMSO and then serially diluted with potassium phosphate buffer (5 mM, pH 7.4, prefiltered before use) to give final concentrations of 1 μM and 10 μM. Final concentration of DMSO was 1% v/v. Measurements were carried out on the Malvern Instrument Zetasizer Nano ZS system equipped with a 4 mW He—Ne laser at 633 nm and detector angle of 90°. Three or more determinations of derived count rates (kilocounts per second, kcps) were obtained from each concentration of test compound, using two separately prepared stock solutions. Data collection was carried out using the software supplied with the instrument. Results are represented as mean±standard deviation. The positive control was benzyl benzoate (250 μM) which gave a count rate of 1180 kcps (±35). The vehicle (phosphate buffer, 1% DMSO) gave a reading of 14.9±0.4.
# [4] = Table 3, mean of two or more determinations (SD)
# [5] = MDA-MB-231, 72 h, read-out: IC50 MDA-MB-231 (μM)
# [6] = MDA-MB-231, 72 h, read-out: IC50MDA-MB-231 (μM)
# [7] = MDA-MB-231, read-out: IC50 (μM) MDA MB 231
# T1 sequence (O60725 whole entry, species assumed): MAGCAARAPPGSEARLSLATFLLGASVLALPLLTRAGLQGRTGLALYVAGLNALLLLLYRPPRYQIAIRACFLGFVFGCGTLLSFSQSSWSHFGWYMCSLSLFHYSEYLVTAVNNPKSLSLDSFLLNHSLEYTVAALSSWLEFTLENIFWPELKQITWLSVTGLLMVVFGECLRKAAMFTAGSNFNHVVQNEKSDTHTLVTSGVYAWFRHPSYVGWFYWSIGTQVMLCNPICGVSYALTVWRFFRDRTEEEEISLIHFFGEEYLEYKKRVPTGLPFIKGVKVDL
Compound,"IC50 [1, 4] [µM]","IC50 ([1]; further testing, mean (SD)) [µM]","IC50 [2, 5] [µM]","IC50 [2, 6] [µM]","IC50 [2, 7] [µM]",DLS count rate (kcps) ([3]; 1 μM),DLS count rate (kcps) ([3]; 10 μM),fold increase in light scattering ([3]; concentration increased from 1 μM to 10 μM),fold higher IC50 Icmt than cysmethynil ([1]; ratio of IC50 Icmt)
"CCCCCCCCn1cc(CC(N)=O)c2cc(-c3cccc(C)c3)ccc21 [Cysmethynil, 2-[5-(3-methylphenyl)-1-octyl-1H-indolo-3-yl]acetamide, reference compound]",1.8,1.9,27.4,26.8,27.4,22.6,164.0,–,–
"CCCCCCCCn1cc(CN(CC)CC)c2cc(-c3cnc(N)nc3)ccc21 [Compound 8-12, 5-(3-Diethylaminomethyl-1-octyl-1H-indol-5-yl)-pyrimidin-2-ylamine]",0.78,0.86,2.48,2.63,2.63,24.5,53.3,2,–
"CCCCCCCCn1c2c(c3cc(-c4cnc(N)nc4)ccc31)CN(C)CC2 [Compound 305, 8-(2′-amino-pyrimidin-5′-yl)-2-methyl-5-n-octyl-1,2,3,4-tetrahydropyrido[4,3-b]indole]",3.3,–,5.65,4.61,–,21.0,29.0,–,about 2
